Experimental data taken from patent publication EP2608671B1, “COMPOUNDS FOR TREATMENT OF CANCER” (Gtx, Inc., priority 2010, dated 2012).
Structures can show the parent of a compound that is named as a salt. Where two headings read alike, the source gives them in different places.

How the values were obtained:
PPC-1 = assay: cells; conditions: Homo sapiens
B16-F1 = assay: SRB cell growth inhibition (cytotoxicity) assay; assay type: cell-based, mouse
From the text: (§1) The only compounds which belong to the invention are the ones falling under the scope of formula (XI).

A375 = assay: SRB cell growth inhibition (cytotoxicity) assay; assay type: cell-based, human
PC-3 = assay: cells; conditions: Homo sapiens
From the text: as §1
Cells were stained with SRB solution.
Cells. […] Cells between the third and fifth passages were used for experiments.
Cell growth inhibition studies. […] Cells were stained with sulphorhodamine B (SRB) solution.

[1] = test system: melanoma cell lines (A375, WM-164, B16-F1) and prostate cancer cell lines (LNCaP, DU 145, PC-3, PPC-1); assay: SRB cytotoxicity, melanoma and prostate cell panel (averages); assay type: cell-based; conditions: for antiproliferative activity: summary of Table 3
From the text: as §1

DU 145 = assay: cells; conditions: Homo sapiens
LNCaP = assay: cells; conditions: Homo sapiens
WM-164 = assay: SRB cell growth inhibition (cytotoxicity) assay; assay type: cell-based, human; conditions: Homo sapiens
[2] = PPC-1, 96 h, read-out: IC50 ± SEM (nM), PPC-1
[3] = PC-3, 96 h, read-out: IC50 ± SEM (nM), PC-3
[4] = DU-145, 96 h, read-out: IC50 ± SEM (nM), DU 145
[5] = 96 h, read-out: IC50 ± SEM (nM), LNCaP
[6] = Mus musculus, B16-F1; read-out: IC50 ± SEM (nM), B16-F1
[7] = Homo sapiens, A-375, 96 h; read-out: IC50 ± SEM (nM), A375
[8] = Prostate cell, read-out: IC50 (average over cell lines)
[9] = DU-145, 96 h, read-out: IC50 ± SEM (nM) Du 145

Work on CNCc1ccc(-c2nc(C(=O)c3cc(OC)c(OC)c(OC)c3)cs2)cc1.Cl [2s, (2-(4-((Methylamino)methyl)phenyl)thiazol-4-yl)(3,4,5-trimethoxyphenyl)methanone hydrochloride] yielded an IC50 (PPC-1; [2]) of roughly 1000 nM, an IC50 (B16-F1; Mus musculus, B16-F1, read-out: IC50 ± SEM (nM), B16-F1) greater than 10000 nM and an IC50 (A375; Homo sapiens, A-375, 96 h, read-out: IC50 ± SEM (nM), A375) greater than 10000 nM. For the same compound, the IC50 (PC-3; [3]) was greater than 10000 nM, the “antiproliferative activity” value [1] was “abrogated activity” and the IC50 (DU 145; [4]) was roughly 10000 nM. It also gave an IC50 (LNCaP; [5]) of 114 ± 80 nM.
COc1cc(C(=O)c2csc(-c3ccc(CN(C)C)cc3)n2)cc(OC)c1OC.Cl [2u, (2-(4-((Dimethylamino)methyl)phenyl)thiazol-4-yl)(3,4,5-trimethoxyphenyl)methanone hydrochloride] was tested, and the IC50 (PPC-1; [2]) was greater than 10000 nM, the IC50 (B16-F1; [6]) was greater than 10000 nM and the IC50 (A375; [7]) was greater than 10000 nM. For the same compound, the IC50 (PC-3; [3]) was greater than 10000 nM, the “antiproliferative activity” value [1] was “abrogated activity” and the IC50 (DU 145; [4]) was greater than 10000 nM. It also gave an IC50 (LNCaP; [5]) of 1020 ± 200 nM.
For COc1cc(/C(=N/O)c2csc(-c3ccccc3)n2)cc(OC)c1OC [2e-cis, (Z)-(2-Phenylthiazol-4-yl)(3,4,5-trimethoxyphenyl)methanone oxime], the IC50 (PPC-1; [2]) was 160 nM, the IC50 (B16-F1; [6]) was 300 ± 100 nM and the IC50 (A375; [7]) was 200 ± 100 nM. For the same compound, the IC50 (PC-3; [3]) was 120 nM, the IC50 ([1]; Prostate cell, Table 2, read-out: IC50 range over tested melanoma and prostate cell lines) was 100 to 300 nM and the IC50 (DU 145; [4]) was 102 nM. It also gave an IC50 (LNCaP; [5]) of 189 nM.
COc1cc(C(=O)c2c[nH]c(-c3ccccc3)n2)cc(OC)c1OC [12aa, (2-phenyl-1H-imidazol-4-yl)(3,4,5-trimethoxyphenyl)methanone] showed an IC50 (PPC-1; PPC-1, 96 h, read-out: IC50 (nM), PPC-1) of 133 nM, an IC50 (B16-F1; Mus musculus, B16-F1, 48 h, read-out: IC50 (nM), B16-F1) of 120 nM and an IC50 (A375; Homo sapiens, A-375, 48 h, read-out: IC50 (nM), A375) of 160 nM. For the same compound, the IC50 (WM-164; WM164, 48 h, read-out: IC50 (nM), WM164) was 10 nM, the IC50 (PC-3; PC-3, 96 h, read-out: IC50 (nM), PC-3) was 288 nM and the IC50 ([1]; ABI compounds, Tables 11-13, read-out: IC50 (average over cell lines)) was 160 nM. The IC50 (DU 145; DU-145, 96 h, read-out: IC50 (nM), Du 145) was 196 nM and the IC50 (LNCaP; 96 h, read-out: IC50 (nM), LNCaP) was 152 nM.
COc1cc(C(=O)c2c[nH]c(-c3cc(OC)c(OC)c(OC)c3)n2)cc(OC)c1OC [12ea, (3,4,5-trimethoxyphenyl)(2-(3,4,5-trimethoxyphenyl)-1H-imidazol-4-yl)methanone] was tested, and the IC50 (PPC-1; [2]) was greater than 10000 nM, the IC50 (PC-3; [3]) was greater than 10000 nM and the IC50 [1, 8] was greater than 10000 nM. It also gave an IC50 (DU 145; [9]) greater than 10000 nM and an IC50 (LNCaP; [5]) greater than 10000 nM.
Compound COc1cc(C(=NN)c2csc(-c3ccccc3)n2)cc(OC)c1OC (mixture of isomers) [2d] has an IC50 ([1]; Table 2, read-out: IC50 range over tested melanoma and prostate cell lines) of roughly 1000 nM.
With Cc1ccc(-c2nc(C(=O)c3ccc(F)cc3)c[nH]2)cc1 [12db-HCl, (4-fluorophenyl)(2-(p-tolyl)-1H-imidazol-4-yl)methanone HCl salt] the IC50 (A375; Homo sapiens, A-375, 48 h, read-out: IC50 ± SEM (nM) A375, A375 melanoma cells, 48 h, SRB) was 108 ± 11 nM and the IC50 ([1]; ABI compounds, Tables 11-13, HCl salt, read-out: IC50 (average over cell lines)) was 172 nM.
In the case of O=C(c1ccc(F)cc1)c1c[nH]c(-c2ccccc2C(F)(F)F)n1 [12ib, (4-fluorophenyl)(2-(2-(trifluoromethyl)phenyl)-1 H-imidazol-4-yl)methanone], the IC50 (PPC-1; [2]) is reported as greater than 10000 nM, the IC50 (B16-F1; Mus musculus; B16-F1 melanoma cells, 48 h, SRB; read-out: IC50 ± SEM (nM) B16-F1) is reported as greater than 10000 nM and the IC50 (A375; Homo sapiens, A-375; A375 melanoma cells, 48 h, SRB; read-out: IC50 ± SEM (nM) A375) is reported as greater than 10000 nM. For the same compound, the IC50 (WM-164; WM164 melanoma cells, 48 h, SRB, read-out: IC50 ± SEM (nM) WM164) was greater than 10000 nM, the IC50 (PC-3; [3]) was greater than 10000 nM and the IC50 [1, 8] was greater than 10000 nM. For the same compound, the IC50 (DU 145; [9]) was greater than 10000 nM and the IC50 (LNCaP; [5]) was greater than 10000 nM.
With O=C(c1cc(O)c(O)c(O)c1)c1c[nH]c(-c2ccc(Cl)cc2)n1 [13fa, (2-(4-chlorophenyl)-1H-imidazol-4-yl)(3,4,5-trihydroxyphenyl)methanone] the IC50 (PPC-1; [2]) was greater than 10000 nM, the IC50 (PC-3; [3]) was 10000 nM and the IC50 [1, 8] was 3890 nM. It also gave an IC50 (DU 145; [9]) of 10000 nM and an IC50 (LNCaP; [5]) of 10000 nM.
O=C(c1ccc2[nH]ccc2c1)c1csc(-c2cc3ccccc3[nH]2)n1 [compound 21, (2-(1H-indol-2-yl)thiazol-4-yl)(1H-indol-5-yl)methanone] was tested, and the IC50 (PPC-1; PPC-1, read-out: IC50 (nM), PPC-1) was 216 nM, the IC50 (B16-F1; Mus musculus, B16-F1; Table 6A; read-out: IC50 (nM), B16-F1) was 924 nM and the IC50 (A375; Homo sapiens, A-375; Table 6A; read-out: IC50 (nM), A375) was 383 nM. It also gave an IC50 (WM-164; WM164, Table 6A, read-out: IC50 (nM), WM164) of 408 nM, an IC50 (PC-3; PC-3, read-out: IC50 (nM), PC-3) of 403 nM and an IC50 ([1]; Prostate cell, summary of Tables 2, 3, 21, read-out: IC50 range over tested melanoma and prostate cell lines) of 76 to 116 nM. For the same compound, the IC50 (DU 145; DU-145, read-out: IC50 (nM), DU 145) was 435 nM and the IC50 (LNCaP; read-out: IC50 (nM), LNCaP) was 314 nM.
